# According to patent publication US11066369B2, “N-(pyridin-2-yl)pyridine-sulfonamide derivatives and their use in the treatment of disease” (Novartis AG, priority 2016, dated 2021):
# Where a name gives a salt, the structure may show the parent alone. Read-outs that look alike come from different tables or passages of the source.
# Target: T1, horseradish peroxidase (HRP) tagged delF508-CFTR (Homo sapiens, UniProt P13569, DEL508-508)
# T1 construct: expressed in transfected cells
# Experiment: Measurement of delF508-CFTR-HRP surface expression in CFBE41o- cells;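 on DelF508-CFTR-HRP Amax %: percent efficacy relative to reference corrector lumacaftor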
# Assay type: cell-based
# Conditions: CFBE41o- cells; for EC50: read-out: DelF508-CFTR-HRP EC50; for Emax: read-out: DelF508-CFTR-HRP Amax %
# Excerpt: Measurement of delF508-CFTR-HRP Surface Expression in CFBE41o-Cells
# This assay quantifies the cell surface expressions of the mutant CFTR channel using an extracellular HRP tag.
# A cellular assay was developed to measure surface expression of horseradish peroxidase (HRP) tagged delF508-CFTR in the human bronchial epithelial immortalized CFBE41o-cell line (Phuan, P. W., et al, (2014) Molecular Pharmacology 86:42-51). Specifically, the HRP sequence was inserted into the fourth extracellular loop of delF508-CFTR and stably expressed in CFBE41o-cells. Cells were seeded in 384 well plate at a density of 5000 cells/well and incubated at 37° C. for 12 to 24 hours in medium (Gibco MEM #11095, 10% FBS, 10 mM HEPES, […], 200 μg/mL G418, 3 μg/mL Puromycin). The delF508-CFTR-HRP expression was induced with 500 ng/mL doxycycline (Sigma D-9891, dissolved in H2O and sterile filtered) in medium and the cells were incubated at 37° C. for 48h. Old medium was removed and fresh medium was added containing 500 ng/mL doxycycline and unknown test compound at required test concentration in DMSO, not exceeding 0.5% final DMSO concentration. The highest concentration tested was 10 μM with a 10-point concentration response curve using a 3-fold dilution. After addition of compounds, the cells were incubated for 24h at 37° C. On the final day, cells were washed four times in PBS containing 1 mM MgCl2 and 0.1 mM CaCl2. HRP-Substrate (SuperSignal ELISA Pico, Fisher #37069) 20 μl/well was added and the luminescence signal was determined (Viewlux, Perkin Elmer). Light was emitted upon addition of exogenous HRP-Substrate only when delF508-CFTR-HRP reached the cell surface and the HRP tag was accessible to the HRP-Substrate (note: HRP-Substrate cannot cross the lipid bilayer to reach delF508-CFTR-HRP misfolded within the cell).
# The median activity for the lowest concentration of the compounds on each assay plate was calculated and this value was used to normalize the signal for each well on the respective plate. Three replicates at each concentrations for every compound were run to determine one EC50. The median value was determined and used to calculate compound activities as described below. Effective half maximal values (EC50) were calculated for each compound by performing logistic regression on measured dose-response data points using the equation:
# [formula] where “Y” is the observed activity, “Bottom” is the lowest observed value, “Top” is the highest observed value, and the “Hill coefficient” gives the largest absolute value of the slope. The curve fitting is carried out by a curve fitting program implemented at GNF using Matlab (Mathworks).
# The dose response curves also were used to calculate Fold Change (FC) using the equation: […]
# Compound efficacy relative to the reference compound 3-(6-(1-(2,2-difluorobenzo[d][1,3]dioxol-5-yl)cyclopropane-1-carboxamido)-3-methylpyridin-2-yl)benzoic acid was determined using the following formula: […]
# [1] = mean of at least two replicates
# [2] = delF508-CFTR-HRP surface expression
# T1 sequence (P13569 with tags, fused parts or gaps DEL508-508): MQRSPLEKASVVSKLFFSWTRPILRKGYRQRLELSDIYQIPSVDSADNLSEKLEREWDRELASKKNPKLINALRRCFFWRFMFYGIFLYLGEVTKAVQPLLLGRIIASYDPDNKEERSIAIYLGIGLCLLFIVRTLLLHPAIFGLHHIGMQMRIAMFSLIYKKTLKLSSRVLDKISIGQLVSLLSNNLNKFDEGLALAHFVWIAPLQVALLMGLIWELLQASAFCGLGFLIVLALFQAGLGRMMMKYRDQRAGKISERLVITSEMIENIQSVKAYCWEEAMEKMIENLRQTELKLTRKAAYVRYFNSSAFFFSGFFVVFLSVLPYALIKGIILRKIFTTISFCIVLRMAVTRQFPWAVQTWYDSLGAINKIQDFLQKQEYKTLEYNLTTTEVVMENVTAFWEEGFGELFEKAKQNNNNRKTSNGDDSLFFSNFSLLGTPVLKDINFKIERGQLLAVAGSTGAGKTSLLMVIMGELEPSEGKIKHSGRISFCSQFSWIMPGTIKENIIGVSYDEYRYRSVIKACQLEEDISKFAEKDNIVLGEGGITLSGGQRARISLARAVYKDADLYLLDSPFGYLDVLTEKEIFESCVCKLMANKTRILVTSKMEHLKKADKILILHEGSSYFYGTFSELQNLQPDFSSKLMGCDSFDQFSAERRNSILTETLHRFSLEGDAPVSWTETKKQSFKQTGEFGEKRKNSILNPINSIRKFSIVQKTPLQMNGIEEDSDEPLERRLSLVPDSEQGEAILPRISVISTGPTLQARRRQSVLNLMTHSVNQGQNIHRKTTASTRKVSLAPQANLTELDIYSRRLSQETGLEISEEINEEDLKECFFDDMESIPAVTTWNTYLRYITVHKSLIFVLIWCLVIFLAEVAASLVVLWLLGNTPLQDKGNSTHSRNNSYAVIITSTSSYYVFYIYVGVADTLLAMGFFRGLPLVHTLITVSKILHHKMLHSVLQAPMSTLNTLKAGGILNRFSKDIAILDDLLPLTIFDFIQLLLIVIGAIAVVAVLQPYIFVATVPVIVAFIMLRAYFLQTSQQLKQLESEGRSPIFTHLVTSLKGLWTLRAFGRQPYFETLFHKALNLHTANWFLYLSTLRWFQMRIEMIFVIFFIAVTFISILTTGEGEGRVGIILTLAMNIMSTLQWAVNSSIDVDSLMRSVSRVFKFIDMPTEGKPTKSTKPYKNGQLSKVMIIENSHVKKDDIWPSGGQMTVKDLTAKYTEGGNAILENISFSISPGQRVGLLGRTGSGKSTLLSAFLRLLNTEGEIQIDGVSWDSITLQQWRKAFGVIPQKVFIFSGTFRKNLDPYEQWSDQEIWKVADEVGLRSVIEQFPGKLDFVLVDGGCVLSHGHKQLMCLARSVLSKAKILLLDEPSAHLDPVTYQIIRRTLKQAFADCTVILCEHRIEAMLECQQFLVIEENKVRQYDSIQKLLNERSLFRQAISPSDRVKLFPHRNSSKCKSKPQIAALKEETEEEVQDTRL
Compound,EC50 [1] [µM],Emax (surface expression Amax) [%],Emax [2] [%],EC50 [2] [µM]
"CO[C@H]1CNCC[C@H]1Nc1cccc(S(=O)(=O)Nc2ccc(C(F)(F)F)c(-c3ccccc3C)n2)n1 (racemic) [Example 115, 6-(((3S,4R)-3-methoxypiperidin-4-yl)amino)-N-(6-(o-tolyl)-5-(trifluoromethyl)pyridin-2-yl)pyridine-2-sulfonamide Hydrochloride]",–,–,192,3.81
"Cc1ccccc1-c1nc(NS(=O)(=O)c2cccc(OC3COCC3=O)n2)ccc1C(F)(F)F (racemic) [Example 292, 6-((4-oxotetrahydrofuran-3-yl)oxy)-N-(6-(o-tolyl)-5-(trifluoromethyl)pyridin-2-yl)pyridine-2-sulfonamide]",–,–,225,2.97
"Cc1ccccc1-c1nc(NS(=O)(=O)c2cccc(N[C@@H]3C[C@@]4(C(=O)O)CC[C@@H]3O4)n2)ccc1C(F)(F)F (racemic) [Example 395, rac-(1RS,3RS,4SR)-3-((6-(N-(6-(o-tolyl)-5-(trifluoromethyl)pyridin-2-yl)sulfamoyl)pyridin-2-yl)amino)-7-oxabicyclo[2.2.1]heptane-1-carboxylic Acid]",3.65,64.3,–,–
"CC(C)c1ccccc1-c1nc(NS(=O)(=O)c2cccc(N[C@@H]3C[C@@]4(C(=O)O)CC[C@@H]3O4)n2)ccc1C(F)(F)F (racemic) [Example 403, rac-(1RS,3RS,4SR)-3-((6-(N-(6-(2-isopropylphenyl)-5-(trifluoromethyl)pyridin-2-yl)sulfamoyl)pyridin-2-yl)amino)-7-oxabicyclo[2.2.1]heptane-1-carboxylic Acid]",2.36,155,–,–
"Cc1ccccc1-c1nc(NS(=O)(=O)c2cccc(N[C@@H]3CCNC[C@@H]3O)n2)ccc1C(F)(F)F (relative stereo) [Example 113, 6-(((3S,4R)-3-hydroxypiperidin-4-yl)amino)-N-(6-(o-tolyl)-5-(trifluoromethyl)pyridin-2-yl)pyridine-2-sulfonamide Hydrochloride]",–,–,72,4.22
"Cc1cccc(C)c1-c1nc(NS(=O)(=O)c2cccc(N)n2)cc(C(F)(F)F)c1Cl [Example 8, 6-amino-N-(5-chloro-6-(2,6-dimethylphenyl)-4-(trifluoromethyl)pyridin-2-yl)pyridine-2-sulfonamide]",–,–,608,1.36
"Cc1cccc(C)c1-c1nc(NS(=O)(=O)c2cccc(N)n2)ccc1F [Example 9, 6-amino-N-(6-(2,6-dimethylphenyl)-5-fluoropyridin-2-yl)pyridine-2-sulfonamide]",–,–,597,1.52
"Cc1ccccc1-c1nc(NS(=O)(=O)c2cccc(N)n2)ccc1Cl [Example 14, 6-Amino-N-(5-chloro-6-(o-tolyl)pyridin-2-yl)pyridine-2-sulfonamide]",–,–,523,1.35
"Cc1ccccc1-c1nc(NS(=O)(=O)c2cccc(N)n2)ccc1C(F)(F)F [Example 15, 6-amino-N-(6-(o-tolyl)-5-(trifluoromethyl)pyridin-2-yl)pyridine-2-sulfonamide]",–,–,520,2.3
"Nc1cccc(S(=O)(=O)Nc2ccc(Cl)c(-c3cc(Cl)ccc3C3CC3)n2)n1 [Example 16, 6-amino-N-(5-chloro-6-(5-chloro-2-cyclopropylphenyl)pyridin-2-yl)pyridine-2-sulfonamide]",–,–,519,1.01
"Nc1cccc(S(=O)(=O)Nc2ccc(Cl)c(-c3ccccc3C3CC3)n2)n1 [Example 19, 6-amino-N-(5-chloro-6-(2-cyclopropylphenyl)pyridin-2-yl)pyridine-2-sulfonamide]",–,–,501,1.3

# The next lines start with the values.
EC50 [1] [µM],Emax (surface expression Amax) [%],Emax [2] [%],EC50 [2] [µM],Compound
2.36,332,–,–,"Cc1ccccc1-c1nc(NS(=O)(=O)c2cccc(NC3CCC(C(=O)O)C3)n2)ccc1C(F)(F)F (mixture of isomers) [Example 459, 3-((6-(N-(6-(o-tolyl)-5-(trifluoromethyl)pyridin-2-yl)sulfamoyl)pyridin-2-yl)amino)cyclopentanecarboxylic Acid]"
1.81,362,–,–,"Cc1ccccc1-c1nc(NS(=O)(=O)c2cccc(NC3CCCC(C(=O)O)C3)n2)ccc1C(F)(F)F (mixture of isomers) [Example 460, 3-((6-(N-(6-(o-tolyl)-5-(trifluoromethyl)pyridin-2-yl)sulfamoyl)pyridin-2-yl)amino)cyclohexanecarboxylic acid]"
0.786,–,–,–,"CCC[C@@H]1CCN(c2cccc(S(=O)(=O)Nc3ccc(C(F)(F)F)c(-c4ccccc4C)n3)n2)[C@H]2C[C@H](C(=O)O)[C@@H]12 (racemic) [Example 404, rac-(1SR,5RS,6RS,7SR)-5-propyl-2-(6-(N-(6-(o-tolyl)-5-(trifluoromethyl)pyridin-2-yl)sulfamoyl)pyridin-2-yl)-2-azabicyclo[4.2.0]octane-7-carboxylic Acid]"
2.23,734,–,–,"CCC[C@@H]1CCN(c2cccc(S(=O)(=O)Nc3ccc(Cl)c(-c4cccnc4C(C)C)n3)n2)[C@H]2C[C@H](C(=O)O)[C@@H]12 (racemic) [Example 434, rac-(1SR,5RS,6RS,7SR)-2-(6-(N-(3-chloro-2′-isopropyl-[2,3′-bipyridin]-6-yl)sulfamoyl)pyridin-2-yl)-5-propyl-2-azabicyclo[4.2.0]octane-7-carboxylic Acid]"
1.98,53.4,–,–,"O=C(O)[C@]12CC[C@H](O1)[C@H](Nc1cccc(S(=O)(=O)Nc3ccc(C(F)(F)F)c(-c4ccccc4C4CC4)n3)n1)C2 (racemic) [Example 438, rac-(1RS,3RS,4SR)-3-((6-(N-(6-(2-cyclopropylphenyl)-5-(trifluoromethyl)pyridin-2-yl)sulfamoyl)pyridin-2-yl)amino)-7-oxabicyclo[2.2.1]heptane-1-carboxylic Acid]"
1.24,–,–,–,"CC(C)c1ccccc1-c1nc(NS(=O)(=O)c2cccc(N3CCC[C@@H]4[C@@H](C(=O)O)C[C@@H]43)n2)ccc1C(F)(F)F (racemic) [Example 442, rac-(1SR,6RS,7SR)-2-(6-(N-(6-(2-isopropylphenyl)-5-(trifluoromethyl)pyridin-2-yl)sulfamoyl)pyridin-2-yl)-2-azabicyclo[4.2.0]octane-7-carboxylic Acid]"
1.75,–,–,–,"Cc1ccccc1-c1nc(NS(=O)(=O)c2cccc(N3CCC[C@@H]4[C@@H](C(=O)O)C[C@@H]43)n2)ccc1C(F)(F)F (racemic) [Example 443, rac-(1SR,6RS,7SR)-2-(6-(N-(6-(o-tolyl)-5-(trifluoromethyl)pyridin-2-yl)sulfamoyl)pyridin-2-yl)-2-azabicyclo[4.2.0]octane-7-carboxylic Acid]"
1.95,392,–,–,"Cc1ccccc1-c1nc(NS(=O)(=O)c2cccc(N[C@@H]3CCC[C@H](C(=O)O)C3)n2)ccc1C(F)(F)F (relative stereo) [Example 461, (1,3-cis)-3-((6-(N-(6-(o-tolyl)-5-(trifluoromethyl)pyridin-2-yl)sulfamoyl)pyridin-2-yl)amino)cyclohexanecarboxylic Acid]"
2.95,410,–,–,"Cc1ccccc1-c1nc(NS(=O)(=O)c2cccc(N[C@@H]3CCC[C@@H](C(=O)O)C3)n2)ccc1C(F)(F)F (relative stereo) [Example 463, (1,3-trans)-3-((6-(N-(6-(o-tolyl)-5-(trifluoromethyl)pyridin-2-yl)sulfamoyl)pyridin-2-yl)amino)cyclohexanecarboxylic Acid]"
